Active and inactive are the calls of the source.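 How the source made its calls: active means half-maximal concentration for the rise in caspase light signal at or below ten times the top tested dose; inconclusive means flat fit between 30% and 70% activity, or unreliable curve fit; inactive means the rest.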
What follows are compounds tested on MEF A1-2A-BIM cells, caspase 3/7 luminescence, 3 h (assay: caspase activation in A1-2A-BIM MEF cells, dose response, A1 inhibitor project, cell-based, luminescence, retest (AID 2765)).
With `NS(=O)(=O)c1ccc(S(=O)(=O)c2ccccc2)nc1` the EC50 was > 35 µM (inactive). In the case of `Cc1ccc(CS(=O)(=O)c2ncc(Cl)c(C(=O)Nc3ccc(OC(F)F)cc3)n2)cc1`, the EC50 is reported as > 35 µM (inactive). With `COC(=O)c1c(NC(=O)C2CC(C)=C(C)CC2C(=O)O)sc2c1CCCCC2` (centres undefined) the EC50 was > 35 µM (inactive). For `CC(C)CC(NC(=O)c1ccc(Cl)cc1)C(=O)OCC(=O)c1ccc2c(c1)NC(=O)CO2` (centres undefined), the EC50 was 5.35 µM. With `COc1ccc(C(=O)Nc2ccc(NC(C)=O)cc2)cc1S(=O)(=O)N1CCCCC1C` (centres undefined) the EC50 was > 35 µM (inactive). For `O=C(N/N=C/c1ccc(N2CCCCC2)o1)c1ccccc1[N+](=O)[O-]`, the EC50 was > 35 µM (inactive). For `O=C(Nc1cccc(Cl)c1)c1ccc(OC(=S)N2CCOCC2)cc1`, the EC50 was > 35 µM (inactive). With `COc1cc(OC)cc(C(=O)Nc2ccc(S(=O)(=O)N3CCOCC3)cc2)c1` the EC50 was > 35 µM (inactive). `COc1ccccc1C(=O)NCCC(=O)N1CCN(S(=O)(=O)c2ccc(Cl)cc2)CC1` was tested, and the EC50 was > 35 µM (inactive). In the case of `CCCCn1c(N2CCCC2)nc2c1c(=O)[nH]c(=O)n2C`, the EC50 is reported as > 35 µM (inactive). For `Cc1nc2sc(C(=O)O)c(N)c2c2c1COC(C)(C)C2`, the EC50 was > 35 µM (inactive). For `CCC(=O)c1ccc(N2CCN(C(=O)Cc3ccccc3)CC2)c(F)c1`, the EC50 was > 35 µM (inactive). With `COc1ccccc1C(=O)N1CCN(Cc2ccc3c(c2)OCO3)CC1` the EC50 was > 35 µM (inactive). `COc1ccccc1N1CCN(S(=O)(=O)CCNC(=O)c2cc(OC)c(OC)c(OC)c2)CC1` was tested, and the EC50 was > 35 µM (inactive). With `O=C(CS(=O)(=O)c1ccccc1)N(CCCN1CCOCC1)c1nc2c(F)cccc2s1` the EC50 was > 35 µM (inactive). In the case of `CCCCCCCCC(=O)NNC(=O)c1c(O)c2ccccc2n(CCC)c1=O`, the EC50 is reported as > 35 µM (inactive). `CCOc1ccc(NC(=O)CSc2nnc(Cc3cccn3C)n2-c2ccc(F)cc2)cc1` was tested, and the EC50 was > 35 µM (inactive). In the case of `CCOC(=O)CC1=C(C(=O)OCC)C2(C(=O)Nc3ccccc32)C(C#N)=C(N)O1` (centres undefined), the EC50 is reported as > 35 µM (inactive). In the case of `COc1cccc(CNC(=O)CN2C(=O)COc3ccc(S(=O)(=O)N4CCCCCC4)cc32)c1`, the EC50 is reported as > 35 µM (inactive). With `O=C(CCC(=O)c1cccs1)OCC(=O)c1ccccc1` the EC50 was > 35 µM (inactive). `Cc1c(C(=O)NCCN2C(=O)S/C(=C\c3cccs3)C2=O)cccc1[N+](=O)[O-]` was tested, and the EC50 was > 35 µM (inactive). `CCOC(=O)CSC1=N/C(=C/c2ccc(-n3cncn3)cc2)C(=O)N1C(C)=O` was tested, and the EC50 was 25.6 µM. In the case of `C=CC[N+]1(CC=C)CCOCC1`, the EC50 is reported as > 35 µM (inactive). With `CCOC(=O)/C(=C\c1cccnc1)C(=O)c1cc(C(C)=O)c(Nc2ccccc2)s1` the EC50 was > 35 µM (inactive). `COc1ccccc1CCCNC(=O)C1CCC(=O)N(Cc2ccccc2F)C1` (centres undefined) was tested, and the EC50 was > 35 µM (inactive). With `C[N+](C)(C)CCNC(=O)c1cc[n+](Cc2ccccc2)c(/C=N/O)c1` the EC50 was > 35 µM (inactive). In the case of `O=C(C1=NN[C@@H]2C(=O)N(Cc3ccccc3)C(=O)[C@H]12)c1ccc(F)cc1`, the EC50 is reported as > 35 µM (inactive). `O=C(O)COc1ccccc1/C=C1\C(=O)Nc2ccc(Br)cc21` was tested, and the EC50 was > 35 µM (inactive). In the case of `Cc1ccccc1N=C1NC(=O)C(CO)(CO)S1`, the EC50 is reported as > 35 µM (inactive). For `COc1ccc(S(N)(=O)=O)cc1C(=O)OCCCOc1ccc(F)cc1`, the EC50 was > 35 µM (inactive). Compound `CCOc1ccc2nc(NCCNC(=O)Nc3cccc(C)c3)c(C#N)cc2c1` has an EC50 of 35.7 µM. For `NCC1CCC(C(=O)Oc2ccc(CCC(=O)O)cc2)CC1` (centres undefined), the EC50 was > 35 µM (inactive). In the case of `O=C(NNc1cc(Br)c(O)c(Br)c1)c1ccccc1`, the EC50 is reported as > 35 µM (inactive). In the case of `O=C(c1c[nH]c2ccccc12)C(Cl)c1ccccc1` (centres undefined), the EC50 is reported as > 35 µM (inactive). With `CC(C)(C)C1C/C(=C/c2ccccn2)C(=O)/C(=C/c2ccccn2)C1` (centres undefined) the EC50 was 8.46 µM. For `CN(C)c1ccc(S(=O)(=O)N(C)C)cc1[N+](=O)[O-]`, the EC50 was > 35 µM (inactive). With `COC(=O)CSc1nc(N)c2c3c(sc2n1)C(c1ccccc1)SC(c1ccccc1)C3` (centres undefined) the EC50 was > 35 µM (inactive). With `CCOc1cccc(C2C(C(=O)c3ccc(C)o3)=C(O)C(=O)N2Cc2ccncc2)c1` (centres undefined) the EC50 was > 35 µM (inactive). `Cc1cc(C2C(C#N)=C(N)SC(N)=C2C#N)c(C)s1` was tested, and the EC50 was > 35 µM (inactive). With `COc1ccc(N2C(=O)CCC(C(=O)O)C2c2ccc(OC)c(OC)c2)cc1` (centres undefined) the EC50 was > 35 µM (inactive). With `CCOc1ccc(N2CC(C(=O)NNC(=O)c3ccc(Br)cc3)CC2=O)cc1` (centres undefined) the EC50 was > 35 µM (inactive). In the case of `O=C(NCCN1CCN(c2ccccc2)CC1)c1ccc2c(c1)[nH]c(=S)n1c3ccccc3nc21`, the EC50 is reported as > 35 µM (inactive). With `O=C(NCCc1ccc(Cl)cc1)C1CCCN(S(=O)(=O)N2CCCCCC2)C1` (centres undefined) the EC50 was > 35 µM (inactive). `COc1ccc(N2CCN(C3CCCN(Cc4cccc(C(C)=O)c4)C3)CC2)cc1` (centres undefined) was tested, and the EC50 was > 35 µM (inactive). For `CC(O)[C@H](NC(=O)C1(c2ccccc2)CCN(C(=O)OC(C)(C)C)CC1)C(=O)O` (some centres undefined), the EC50 was > 35 µM (inactive). For `CCN(CC)C(=S)SCC(=O)Nc1ccc(F)cc1`, the EC50 was > 35 µM (inactive). In the case of `COc1cc(/C=C/C(=O)c2ccc([N+](=O)[O-])o2)ccc1O`, the EC50 is reported as > 35 µM (inactive). With `CSC[C@@H]1NC(=S)N(c2ccc(C)cc2)C1=O` the EC50 was > 35 µM (inactive). In the case of `COc1cccc(/C=N/NC(=O)c2cc3cc([N+](=O)[O-])ccc3s2)c1O`, the EC50 is reported as > 35 µM (inactive). For `CC(C)(C)C1CCc2onc(C(=O)Nc3cccc(O)c3)c2C1` (centres undefined), the EC50 was > 35 µM (inactive). With `COc1ccc(-c2oc(=O)c3cc(OC)c(OC)cc3c2/C=C/c2cccc([N+](=O)[O-])c2)cc1` the EC50 was > 35 µM (inactive). `COc1ccc(CCNC(=O)CCOc2ccc(C)cc2)cc1OC` was tested, and the EC50 was > 35 µM (inactive). `C[C@]12CC[C@H](O)C[C@H]1CC[C@@H]1[C@@H]2CC[C@]2(C)[C@@H](C3=CC(=O)OC3)CC[C@]12O` was tested, and the EC50 was > 35 µM (inactive). For `O=C(Nc1ccc(N2CCN(C(=O)c3ccco3)CC2)cc1)c1cccs1`, the EC50 was > 35 µM (inactive). `O=C(NC[C@H]1CCCO1)c1cccc2c1C(=O)c1ccc(-c3ccc(F)cc3OCc3ccccc3)cc1S2(=O)=O` was tested, and the EC50 was > 35 µM (inactive). For `Nc1nonc1-c1nc2ccccc2n1CC(=O)NC1CCCC1`, the EC50 was > 35 µM (inactive). With `CCn1nnc(NC(=O)Cc2ccc(Cl)cc2)n1` the EC50 was > 35 µM (inactive). For `CN1CCc2c(sc3c2C(=O)NC(c2ccccn2)N3)C1` (centres undefined), the EC50 was > 35 µM (inactive). `CCCCc1ccc(-c2csc(/C(C#N)=C\c3ccc(C)o3)n2)cc1` was tested, and the EC50 was > 35 µM (inactive). For `Cc1ccccc1S(=O)(=O)N(CC(O)CN1CCCCC1)c1ccccc1` (centres undefined), the EC50 was > 35 µM (inactive). With `CS(=O)(=O)c1nc(-c2ccco2)cc(C(F)(F)F)n1` the EC50 was > 35 µM (inactive). For `CSc1ccc(CCNC(=O)CCc2nnc3ccc(NCCCN4CCCC4=O)nn23)cc1`, the EC50 was > 35 µM (inactive). With `COc1ccccc1N1CCN(C(c2ccccc2)c2nnnn2CCc2ccccc2)CC1` (centres undefined) the EC50 was > 35 µM (inactive). For `COc1cccc(C(=O)C(C#N)=C(SC)SC)c1`, the EC50 was > 35 µM (inactive). For `CC(=O)OC(C)(C)/C=C/C(=O)[C@](C)(O)C1[C@H](O)C[C@@]2(C)C3CC=C4C(C[C@H](O)C(=O)C4(C)C)[C@]3(C)C(=O)C[C@]12C` (some centres undefined), the EC50 was > 35 µM (inactive). In the case of `CCOc1nc(NCCO)nc(NCCC2=CCCCC2)n1`, the EC50 is reported as > 35 µM (inactive). For `CN(C)S(=O)(=O)c1cccc(C(=O)Nc2n[nH]c(C(F)(F)F)n2)c1`, the EC50 was > 35 µM (inactive). With `COc1ccc2c(c1)[nH]c1c(=O)n(/N=C/C3C(C)C=C(C)CC3C)c(=O)[nH]c12` (centres undefined) the EC50 was > 35 µM (inactive). For `Cc1csc(NC(=O)c2cccc(S(=O)(=O)N3CCN(C)CC3)c2)n1`, the EC50 was > 35 µM (inactive). In the case of `CCN(CC)c1ccc2c(c1)oc(=O)c1c(Cl)cc(=O)oc12`, the EC50 is reported as > 35 µM (inactive). `CC(C)CCN1NC2(CCCC(C)C2)NC1=S` (centres undefined) was tested, and the EC50 was > 35 µM (inactive). `O=C(NC1CCCCC1)C(c1ccc(F)cc1)N(CCc1ccccc1)C(=O)CN1C(=O)c2ccccc2S1(=O)=O` (centres undefined) was tested, and the EC50 was 24.1 µM. `Cc1ccc(S(=O)(=O)CC#CCOC(=O)c2ccc([N+](=O)[O-])cc2)cc1` was tested, and the EC50 was > 35 µM (inactive). With `COCc1cccc(NC(=O)CCc2ccccc2)c1` the EC50 was > 35 µM (inactive). With `CSc1ccccc1NC(=O)c1ccc(N2CC3CC(C2)c2cccc(=O)n2C3)c(NC(=O)c2cccnc2)c1` (centres undefined) the EC50 was > 35 µM (inactive). With `N#Cc1cc(C(=O)c2cc(Br)ccc2O)cn(C2CC2)c1=O` the EC50 was > 35 µM (inactive). In the case of `COc1cccc(-c2cc(=O)c3cc(NC(=O)c4ccc(N(C)C)cc4)ccc3[nH]2)c1`, the EC50 is reported as > 35 µM (inactive). For `C=CCNC(=O)c1ccccc1NC(=O)COc1ccccc1`, the EC50 was > 35 µM (inactive). `CC(c1ccccc1)n1c(CCCO)nc2ccccc21` (centres undefined) was tested, and the EC50 was > 35 µM (inactive). With `Clc1ccccc1CN(Cc1ccccc1)c1ncnc2nc[nH]c12` the EC50 was > 35 µM (inactive). For `Cc1ccc(C)c(N(C)C(=O)c2ccc3c(=O)n4c(nc3c2)CCCCC4)c1`, the EC50 was > 35 µM (inactive). In the case of `CCOC(=O)/C=c1\s/c(=C\c2ccc(C(=O)OC)cc2)c(=O)n1CC(=O)Nc1ccccc1`, the EC50 is reported as > 35 µM (inactive). For `Cc1cc(C)cc(Cn2ncc(Cl)c(Cl)c2=O)c1`, the EC50 was > 35 µM (inactive). In the case of `CCOc1cc(/C=N/N=C(\N)c2nonc2N)cc(Br)c1OCc1cccc2ccccc12`, the EC50 is reported as 28 µM. `NC(=O)OCCCc1ccccc1` was tested, and the EC50 was > 35 µM (inactive). With `O=C(/C=C/c1cccc(Cl)c1)c1ccc([N+](=O)[O-])o1` the EC50 was > 35 µM (inactive). For `Cc1c(Cl)cccc1NC(=O)[C@@]1(CC(=O)O)CC(/C=C/c2ccccc2)=NO1`, the EC50 was > 35 µM (inactive). In the case of `CN(C(=O)CSc1nnc(C(F)(F)F)n1N)C1CCS(=O)(=O)C1` (centres undefined), the EC50 is reported as > 35 µM (inactive). With `O=C(/C=C/N1CCN(Cc2ccccc2)CC1)C(F)(F)F` the EC50 was > 35 µM (inactive).
